The results in this text go back to patent US8022061B2, “N-aryl pyrazole compounds, compositions, and methods for their use” (Amgen Inc., priority 2006, dated 2011).

The first test deals with ob/ob mice. Nature of the test: Increase of circulating insulin concentrations in treated ob/ob mice. The conditions noted are these: male ob/ob mice, dose 10 mg/kg p.o., 10 minutes after dosing, relative to control group. The class given is in vivo. Here is the method:
The results presented below exemplify that administration of the compounds as provided herein to an art-recognized animal model of human diabetes can lead to increased circulating insulin concentrations in the animal model.
Male ob/ob mice were weighed and bled from tail vein, and blood glucose levels were determined with a glucometer. Animals were placed into control and treatment groups having similar averages of glucose levels and body weights. In the morning of the following day, animals were dosed with vehicle (control group) or test article (5 ml/kg, p.o.). Blood samples were collected just before and 10 minutes after dosing, and the samples were assayed for insulin and glucose concentrations.
Table 1 provides exemplary data showing the increase of circulating insulin concentrations (expressed as ng/ml) in treated mice relative to control group at 10 minutes after dosing the treated mice. Concentrations of the exemplary compound tested in the mice are provided in the righthand column.
On to `CCCCc1c(C(=O)NCc2c(C)ncn2CC(=O)O)cnn1-c1ncc(C)c(-c2cccs2)n1` [(5-{[({5-Butyl-1-[5-methyl-4-(2-thienyl)pyrimidin-2-yl]-1H-pyrazol-4-yl}carbonyl)amino]methyl}-4-methyl-1H-imidazol-1-yl)acetic acid], for which the “Increase in Insulin” value is 3.9 ng/mL.

In the next test the test system is C57B6 mice. Description: Glucose lowering effect after oral glucose challenge in C57B6 mice. The class given is in vivo. Conditions: male C57B6 mice, p.o. 30 minutes before oral glucose 3 g/kg; blood glucose before, 20 and 50 minutes after challenge; relative to control group. Here is the method:
The following example describes the glucose lowering effect of compounds observed in vivo.
Male C57B6 mice were placed into control and treatment groups having similar averages of body weights. Then, animals were dosed with vehicle (control group) or test article (5 ml/kg, p.o.). Thirty minutes after dosing, glucose (3 g/kg) was orally administered in each animal. Blood samples were collected just before, 20 minutes and 50 minutes after glucose challenge and glucose concentrations in the samples was assessed. The values in Table 2 represent the observed % AUC reduction of blood glucose in the treated animals relative to the control group.
Turning to `CCOCc1c(C(=O)NCc2c(CO)ncn2C)cnn1-c1ncc(C)c(N2CCc3ccccc3C2)n1` [1-[4-(3,4-Dihydroisoquinolin-2(1H)-yl)-5-methylpyrimidin-2-yl]-5-(ethoxymethyl)-N-{[4-(hydroxymethyl)-1-methyl-1H-imidazol-5-yl]methyl}-1H-pyrazole-4-carboxamide], the “% AUC reduction in glucose levels” value is given as 63%.

On to `COCc1c(C(=O)NCc2c(CO)ncn2C)cnn1-c1ncc(C)c(-c2ccoc2)n1` [1-[4-(3-Furyl)-5-methylpyrimidin-2-yl]-N-[{4-(hydroxymethyl)-1-methyl-1H-imidazol-5-yl]methyl}-5-(methoxymethyl)-1H-pyrazole-4-carboxamide], for which the “% AUC reduction in glucose levels” value was found to be 29%.

`CCCc1c(C(=O)NCc2c(CO)ncn2C)cnn1-c1ncc(C)c(-c2ccoc2)n1` [1-[4-(3-Furyl)-5-methylpyrimidin-2-yl]-N-{[4-(hydroxymethyl)-1-methyl-1H-imidazol-5-yl]methyl}-5-propyl-1H-pyrazole-4-carboxamide]: the “% AUC reduction in glucose levels” value was 19%.

On to `CCOCc1c(C(=O)NCc2cncn2C)cnn1-c1ncc(C)c(NC2CCCCC2)n1` [1-[4-(Cyclohexylamino)-5-methylpyrimidin-2-yl]-5-(ethoxymethyl)-N-[(1-methyl-1H-imidazol-5-yl)methyl]-1H-pyrazole-4-carboxamide], for which the “% AUC reduction in glucose levels” value is 42%.

For `CCOCc1c(C(=O)NCc2c(CO)ncn2C)cnn1-c1ncc(Cl)c(-c2cccs2)n1` [1-[5-Chloro-4-(2-thienyl)pyrimidin-2-yl]-5-(ethoxymethyl)-N-{[4-(hydroxymethyl)-1-methyl-1H-imidazol-5-yl]methyl}-1H-pyrazole-4-carboxamide], the “% AUC reduction in glucose levels” value came out at 41%.

For `CCCCc1c(C(=O)NCc2c(C)ncn2C(C)(C)C(=O)O)cnn1-c1ncc(C)c(-c2cccs2)n1` [2-(5-{[({5-Butyl-1-[5-methyl-4-(2-thienyl)pyrimidin-2-yl]-1H-pyrazol-4-yl}carbonyl)amino]methyl}-4-methyl-1H-imidazol-1-yl)-2-methylpropanoic acid], the “% AUC reduction in glucose levels” value is 15%.

On to `COCCc1c(C(=O)NCc2cncn2C)cnn1-c1ncc(C)c(-c2cccs2)n1` [5-(2-Methoxyethyl)-N-[(1-methyl-1H-imidazol-5-yl)methyl]-1-[5-methyl-4-(2-thienyl)pyrimidin-2-yl]-1H-pyrazole-4-carboxamide], for which the “% AUC reduction in glucose levels” value was 25%.

With `CCOCc1c(C(=O)NCc2cncn2C)cnn1-c1ncc(C)c(-c2ccco2)n1` [5-(Ethoxymethyl)-1-[4-(2-furyl)-5-methylpyrimidin-2-yl]-N-[(1-methyl-1H-imidazol-5-yl)methyl]-1H-pyrazole-4-carboxamide], the “% AUC reduction in glucose levels” value is given as 51%.

As to `CCOCc1c(C(=O)NCc2cncn2C)cnn1-c1ncc(C)c(N2CCCCC2)n1` [5-(Ethoxymethyl)-N-((1-methyl-1H-imidazol-5-yl)methyl)-1-(5-methyl-4-(piperidin-1-yl)pyrimidin-2-yl)-1H-pyrazole-4-carboxamide], the “% AUC reduction in glucose levels” value came to 42%.

For the compound `CCOCc1c(C(=O)NCc2cncn2C)cnn1-c1ncc(C)c(-c2cccs2)n1` [5-(Ethoxymethyl)-N-((1-methyl-1H-imidazol-5-yl)methyl)-1-(5-methyl-4-(thiophen-2-yl)pyrimidin-2-yl)-1H-pyrazole-4-carboxamide], the “% AUC reduction in glucose levels” value stood at 16%.

Consider `CCOCc1c(C(=O)NCc2cncn2C)cnn1-c1ncc(C)c(-c2ccccc2)n1` [5-(Ethoxymethyl)-N-[(1-methyl-1H-imidazol-5-yl)methyl]-1-(5-methyl-4-phenylpyrimidin-2-yl)-1H-pyrazole-4-carboxamide], for which the “% AUC reduction in glucose levels” value is given as 35%.

`CCOCc1c(C(=O)NCc2cncn2C)cnn1-c1ncc(C)c(N2CCCC2)n1` [5-(Ethoxymethyl)-N-[(1-methyl-1H-imidazol-5-yl)methyl]-1-(5-methyl-4-pyrrolidin-1-ylpyrimidin-2-yl)-1H-pyrazole-4-carboxamide]: the “% AUC reduction in glucose levels” value came to 18%.

Consider `CCOCc1c(C(=O)NCc2cncn2C)cnn1-c1ncc(C)c(-c2nccs2)n1` [5-(Ethoxymethyl)-N-[(1-methyl-1H-imidazol-5-yl)methyl]-1-[5-methyl-4-(1,3-thiazol-2-yl)pyrimidin-2-yl]-1H-pyrazole-4-carboxamide], for which the “% AUC reduction in glucose levels” value came to 41%.

Take `CCOCc1c(C(=O)NCc2cncn2C)cnn1-c1ncc(C)c(N2CC(F)(F)C(F)(F)C2)n1` [5-(Ethoxymethyl)-N-[(1-methyl-1H-imidazol-5-yl)methyl]-1-[5-methyl-4-(3,3,4,4-tetrafluoropyrrolidin-1-yl)pyrimidin-2-yl]-1H-pyrazole-4-carboxamide]: the “% AUC reduction in glucose levels” value worked out at 11%.

For the compound `CCOCc1c(C(=O)NCc2cncn2C)cnn1-c1ncc(C)c(-c2ccsc2)n1` [5-(Ethoxymethyl)-N-[(1-methyl-1H-imidazol-5-yl)methyl]-1-[5-methyl-4-(3-thienyl)pyrimidin-2-yl]-1H-pyrazole-4-carboxamide], the “% AUC reduction in glucose levels” value was found to be 51%.

Regarding `CCOCc1c(C(=O)NCc2c(CO)ncn2C)cnn1-c1ncc(C)c(-c2cccs2)n1` [5-(Ethoxymethyl)-N-{[4-(hydroxymethyl)-1-methyl-1H-imidazol-5-yl]methyl}-1-[5-methyl-4-(2-thienyl)pyrimidin-2-yl]-1H-pyrazole-4-carboxamide], the “% AUC reduction in glucose levels” value came to 35%.

Consider `CCCCc1c(C(=O)NCc2cnc3ccccn23)cnn1-c1ncc(Cl)c(NC2CC2)n1` [5-Butyl-1-[5-chloro-4-(cyclopropylamino)pyrimidin-2-yl]-N-(imidazo[1,2-a]pyridin-3-ylmethyl)-1H-pyrazole-4-carboxamide], for which the “% AUC reduction in glucose levels” value came to 32%.

Consider `CCCCc1c(C(=O)NCc2cncn2C)cnn1-c1ncc(Cl)c(NC2CC2)n1` [5-Butyl-1-[5-chloro-4-(cyclopropylamino)pyrimidin-2-yl]-N-[(1-methyl-1H-imidazol-5-yl)methyl]-1H-pyrazole-4-carboxamide], for which the “% AUC reduction in glucose levels” value was 7%.

`CCCCc1c(C(=O)NCc2cnc3ccccn23)cnn1-c1ncc(C)c(N2CCCC2)n1` [5-Butyl-N-(imidazo[1,2-a]pyridin-3-ylmethyl)-1-(5-methyl-4-pyrrolidin-1-ylpyrimidin-2-yl)-1H-pyrazole-4-carboxamide]: the “% AUC reduction in glucose levels” value came out at 34%.

For the compound `CCCCc1c(C(=O)NCc2c(C)nc3ccccn23)cnn1-c1ncc(C)c(-c2cccs2)n1` [5-Butyl-N-[(2-methylimidazo[1,2-a]pyridin-3-yl)methyl]-1-[5-methyl-4-(2-thienyl)pyrimidin-2-yl]-1H-pyrazole-4-carboxamide], the “% AUC reduction in glucose levels” value turned out to be 35%.

Consider `CCCCc1c(C(=O)NCc2c(C)ncn2CC(=O)O)cnn1-c1ncc(C)c(-c2cccs2)n1` [(5-{[({5-Butyl-1-[5-methyl-4-(2-thienyl)pyrimidin-2-yl]-1H-pyrazol-4-yl}carbonyl)amino]methyl}-4-methyl-1H-imidazol-1-yl)acetic acid], for which the “% AUC reduction in glucose levels” value came out at 19%.

As for `CCCCc1c(C(=O)NCc2cnc3cc(C(=O)OC)ccn23)cnn1-c1ncc(Cl)c(NC2CC2)n1` [Methyl 3-{[({5-butyl-1-[5-chloro-4-(cyclopropylamino)pyrimidin-2-yl]-1H-pyrazol-4-yl}carbonyl)amino]methyl}imidazo[1,2-a]pyridine-7-carboxylate], the “% AUC reduction in glucose levels” value turned out to be 24%.

As to `CCCc1c(C(=O)NCc2c(CO)ncn2C)cnn1-c1ncc(C)c(N2CCOCC2)n1` [N-{[4-(Hydroxymethyl)-1-methyl-1H-imidazol-5-yl]methyl}-1-(5-methyl-4-morpholin-4-ylpyrimidin-2-yl)-5-propyl-1H-pyrazole-4-carboxamide], the “% AUC reduction in glucose levels” value is 6%.

On to `CCCc1c(C(=O)NCc2c(CO)ncn2C)cnn1-c1ncc(C)c(-c2cccs2)n1` [N-{[4-(Hydroxymethyl)-1-methyl-1H-imidazol-5-yl]methyl}-1-[5-methyl-4-(2-thienyl)pyrimidin-2-yl]-5-propyl-1H-pyrazole-4-carboxamide], for which the “% AUC reduction in glucose levels” value is given as 35%.

For the compound `COCc1c(C(=O)NCc2c(CO)ncn2C)cnn1-c1ncc(C)c(N2CCCCC2)n1` [N-{[4-(Hydroxymethyl)-1-methyl-1H-imidazol-5-yl]methyl}-5-(methoxymethyl)-1-(5-methyl-4-piperidin-1-ylpyrimidin-2-yl)-1H-pyrazole-4-carboxamide], the “% AUC reduction in glucose levels” value was found to be 14%.

Consider `COCc1c(C(=O)NCc2c(CO)ncn2C)cnn1-c1ncc(C)c(-c2cccs2)n1` [N-{[4-(Hydroxymethyl)-1-methyl-1H-imidazol-5-yl]methyl}-5-(methoxymethyl)-1-[5-methyl-4-(2-thienyl)pyrimidin-2-yl]-1H-pyrazole-4-carboxamide], for which the “% AUC reduction in glucose levels” value came to 14%.
